Entries after “also recorded” stand apart in the source; their conditions may differ.
Columns and labels:
soybean 15-LOX = target: T1, soybean 15-LOX (Glycine max, UniProt P08170); assay: In vitro 15-lipoxygenase inhibition assay; type: biochemical; details: read-out: IC50 (µM) ± SEM 15-LOX
T1 sequence (P08170 1-839): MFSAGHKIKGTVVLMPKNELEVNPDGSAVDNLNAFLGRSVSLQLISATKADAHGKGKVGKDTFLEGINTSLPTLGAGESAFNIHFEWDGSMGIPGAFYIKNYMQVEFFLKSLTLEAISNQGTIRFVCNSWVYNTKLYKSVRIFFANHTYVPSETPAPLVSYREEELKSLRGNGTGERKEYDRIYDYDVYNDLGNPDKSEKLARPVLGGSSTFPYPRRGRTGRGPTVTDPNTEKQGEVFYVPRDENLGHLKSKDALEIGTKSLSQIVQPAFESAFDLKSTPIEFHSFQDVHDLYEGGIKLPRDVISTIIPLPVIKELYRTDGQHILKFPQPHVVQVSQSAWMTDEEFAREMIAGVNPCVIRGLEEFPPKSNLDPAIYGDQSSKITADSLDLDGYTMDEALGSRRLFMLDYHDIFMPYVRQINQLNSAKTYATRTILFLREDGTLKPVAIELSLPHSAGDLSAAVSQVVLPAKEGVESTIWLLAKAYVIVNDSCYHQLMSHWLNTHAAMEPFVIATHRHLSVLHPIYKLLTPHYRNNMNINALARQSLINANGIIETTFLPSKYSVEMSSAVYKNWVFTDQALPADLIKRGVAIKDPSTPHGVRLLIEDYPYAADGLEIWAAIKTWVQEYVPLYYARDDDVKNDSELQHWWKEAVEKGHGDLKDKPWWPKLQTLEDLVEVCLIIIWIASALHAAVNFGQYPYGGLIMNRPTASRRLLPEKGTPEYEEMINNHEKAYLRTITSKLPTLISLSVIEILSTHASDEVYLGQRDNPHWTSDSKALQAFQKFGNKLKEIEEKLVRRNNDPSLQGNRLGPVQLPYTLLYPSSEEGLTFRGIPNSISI
Source text: (§1) Assay protocols for bioactivity were placed in electronic supplementary material.

α-glucosidase = α-glucosidase (Saccharomyces cerevisiae, UniProt P53341); assay: In vitro α-glucosidase inhibition assay; type: biochemical; details: NA = not active; for IC50: read-out: IC50 (µM) ± SEM α-glucosidase
Source text: as §1
Synthesized diclofenac acid derivatives were screened for α-glucosidase inhibitory activity (table 2).

mononuclear cells (MNCs) = assay: Cellular viability assay on mononuclear cells; type: cell-based, human
Source text: (§2) All of the chemicals and solvents were obtained from Sigma-Aldrich and used directly without any purification. Mononuclear cells were isolated from the blood samples taken from healthy volunteers. Diclofenac acid was purchased from Alfa Aesar. Bruker Avance 400 and 500 MHz spectrometers were used to […] the ^1H and ^13C nuclear magnetic resonance (NMR) spectra, were captured with tetramethylsilane (TMS) serving as an internal reference. On a Finnegan MAT-311A mass spectrometer, high-resolution mass spectrometry using electron ionization (HRMS (EI)) data were recorded. Using the Stuart melting point apparatus, melting points in open capillaries were determined (SMP10). All reactions were monitored by using thin layer chromatography (TLC) plates that were pre-coated with silica gel 60F254.
as §1
(§3) Using mononuclear cells (MNCs) at a concentration of 0.25 mM as shown in the table 2, the per cent viability was calculated.

[1] = Cellular viability assay on mononuclear cells; type: cell-based, human; details: human, mononuclear cells (MNCs) isolated from blood, read-out: cell viability (%) at 0.25 mM
Source text: as §2, §1, §3

Chain of α-glucosidase (P53341 whole entry): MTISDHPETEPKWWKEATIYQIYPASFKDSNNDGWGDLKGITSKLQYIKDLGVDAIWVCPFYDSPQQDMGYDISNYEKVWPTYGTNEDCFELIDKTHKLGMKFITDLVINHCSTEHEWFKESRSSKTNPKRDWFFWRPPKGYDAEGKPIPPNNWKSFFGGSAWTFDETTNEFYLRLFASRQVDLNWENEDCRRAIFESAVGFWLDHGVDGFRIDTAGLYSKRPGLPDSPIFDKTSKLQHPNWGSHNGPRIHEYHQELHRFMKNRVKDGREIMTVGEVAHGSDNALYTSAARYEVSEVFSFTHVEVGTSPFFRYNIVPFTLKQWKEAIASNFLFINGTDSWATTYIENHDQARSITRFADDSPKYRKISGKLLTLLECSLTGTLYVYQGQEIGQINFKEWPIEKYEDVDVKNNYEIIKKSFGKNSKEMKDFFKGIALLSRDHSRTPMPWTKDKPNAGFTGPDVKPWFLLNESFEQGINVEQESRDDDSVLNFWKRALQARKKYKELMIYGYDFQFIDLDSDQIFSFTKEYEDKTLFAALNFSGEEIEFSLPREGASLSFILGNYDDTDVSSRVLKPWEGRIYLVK

| SMILES | IC50 (soybean 15-LOX) [µM] | IC50 (α-glucosidase) [µM] | cell viability (%) at 0.25 mM (mononuclear cells (MNCs)) [%] | viability at 0.25 mM [1] [%] | IC50 (µM) ± SEM α-glucosidase (α-glucosidase) |
| --- | --- | --- | --- | --- | --- |
| Clc1ccc(Nc2nnc(Cc3ccccc3Nc3c(Cl)cccc3Cl)o2)c(Cl)c1 [7e] | 172 ± 1 | 61 ± 1 | 43 ± 1 | – | – |
| Fc1ccccc1-n1c(S)nnc1Cc1ccccc1Nc1c(Cl)cccc1Cl [5a] | 14 ± 1 | 202 ± 1 | 97 ± 2 | – | – |
| Sc1nnc(Cc2ccccc2Nc2c(Cl)cccc2Cl)n1-c1cccc(Cl)c1Cl [5d] | 141 ± 1 | 83 ± 1 | 96 ± 2 | – | – |
| CCCSc1nnc(Cc2ccccc2Nc2c(Cl)cccc2Cl)n1-c1ccc(F)cc1 [6c] | > 250 | 92 ± 1 | 85 ± 1 | – | – |
| COc1cc(/C=C/C(=O)CC(=O)/C=C/c2ccc(O)c(OC)c2)ccc1O [curcumin, reference compound] | – | – | – | 74 ± 2 | – |
| CCCSc1nnc(Cc2ccccc2Nc2c(Cl)cccc2Cl)n1-c1ccc(Cl)c(Cl)c1 [6d] | > 250 | 90 ± 1 | 78 ± 2 | – | – |
| O=P1(N(CCCl)CCCl)NCCCO1 (stereo not shown) [cyclophosphamide, reference compound] | – | – | – | 56 ± 2 | – |
| Fc1cccc(Nc2nnc(Cc3ccccc3Nc3c(Cl)cccc3Cl)s2)c1 [8b] | 97 ± 1 | 11 ± 1 | 92 ± 2 | – | – |
| Fc1ccc(Nc2nnc(Cc3ccccc3Nc3c(Cl)cccc3Cl)o2)cc1 [7c] | 67 ± 1 | 85 ± 1 | 63 ± 1 | – | – |
| Clc1ccc(Nc2nnc(Cc3ccccc3Nc3c(Cl)cccc3Cl)o2)cc1Cl [7f] | 143 ± 1 | 91 ± 1 | 59 ± 2 | – | – |
| Fc1cccc(-n2c(S)nnc2Cc2ccccc2Nc2c(Cl)cccc2Cl)c1 [5b] | 61 ± 1 | 308 ± 1 | 96 ± 2 | – | – |
| Sc1nnc(Cc2ccccc2Nc2c(Cl)cccc2Cl)n1-c1ccc(Cl)cc1Cl [5e] | 93 ± 1 | 92 ± 1 | 94 ± 1 | – | – |
| Clc1ccc(Nc2nnc(Cc3ccccc3Nc3c(Cl)cccc3Cl)s2)c(Cl)c1 [8e] | > 250 | – | 75 ± 1 | – | inactive; also recorded: non-active |
| Fc1ccccc1Nc1nnc(Cc2ccccc2Nc2c(Cl)cccc2Cl)o1 [7a] | 98 ± 1 | 7 ± 1 | 76 ± 1 | – | – |
| Clc1cccc(Nc2nnc(Cc3ccccc3Nc3c(Cl)cccc3Cl)s2)c1Cl [8d] | 132 ± 1 | 46 ± 1 | 98 ± 2 | – | – |
| Fc1ccc(-n2c(S)nnc2Cc2ccccc2Nc2c(Cl)cccc2Cl)cc1 [5c] | > 250 | 170 ± 1 | 96 ± 2 | – | – |

| SMILES | IC50 (soybean 15-LOX) [µM] | IC50 (α-glucosidase) [µM] | cell viability (%) at 0.25 mM (mononuclear cells (MNCs)) [%] | viability at 0.25 mM [1] [%] | IC50 (µM) ± SEM α-glucosidase (α-glucosidase) |
| --- | --- | --- | --- | --- | --- |
| O=C(Cc1ccccc1Nc1c(Cl)cccc1Cl)NNC(=S)Nc1ccc(Cl)cc1Cl [4e] | 177 ± 1 | 87 ± 1 | 64 ± 2 | – | – |
| O=C(Cc1ccccc1Nc1c(Cl)cccc1Cl)NNC(=S)Nc1ccc(F)cc1 [4c] | > 250 | 53 ± 1 | 62 ± 2 | – | – |
| Clc1ccc(Nc2nnc(Cc3ccccc3Nc3c(Cl)cccc3Cl)s2)cc1Cl [8f] | 156 ± 1 | 125 ± 1 | 95 ± 2 | – | – |
| Fc1cccc(Nc2nnc(Cc3ccccc3Nc3c(Cl)cccc3Cl)o2)c1 [7b] | 87 ± 1 | 3 ± 1 | 72 ± 1 | – | – |
| Fc1ccc(Nc2nnc(Cc3ccccc3Nc3c(Cl)cccc3Cl)s2)cc1 [8c] | 173 ± 1 | 55 ± 1 | 76 ± 1 | – | – |
| CCSc1nnc(Cc2ccccc2Nc2c(Cl)cccc2Cl)n1-c1ccc(F)cc1 [6a] | > 250 | 116 ± 1 | 88 ± 2 | – | – |
| O=c1cc(-c2ccccc2)oc2cc(O)c(O)c(O)c12 [baicalein, reference compound] | 22 ± 1 | – | – | – | – |
| O=C(Cc1ccccc1Nc1c(Cl)cccc1Cl)NNC(=S)Nc1ccc(Cl)c(Cl)c1 [4f] | > 250 | 93 ± 1 | 64 ± 2 | – | – |
| O=C(Cc1ccccc1Nc1c(Cl)cccc1Cl)NNC(=S)Nc1cccc(Cl)c1Cl [4d] | 164 ± 1 | 28 ± 1 | 73 ± 1 | – | – |
| O=c1c(O)c(-c2ccc(O)c(O)c2)oc2cc(O)cc(O)c12 [quercetin, reference compound] | – | – | – | 92 ± 1 | – |
| Fc1ccccc1Nc1nnc(Cc2ccccc2Nc2c(Cl)cccc2Cl)s1 [8a] | > 250 | 99 ± 1 | 86 ± 2 | – | – |
| O=C(Cc1ccccc1Nc1c(Cl)cccc1Cl)NNC(=S)Nc1cccc(F)c1 [4b] | > 250 | 5 ± 1 | 82 ± 1 | – | – |
| O=C(Cc1ccccc1Nc1c(Cl)cccc1Cl)NNC(=S)Nc1ccccc1F [4a] | 163 ± 1 | 53 ± 1 | 79 ± 2 | – | – |
| Sc1nnc(Cc2ccccc2Nc2c(Cl)cccc2Cl)n1-c1ccc(Cl)c(Cl)c1 [5f] | 75 ± 1 | 247 ± 1 | 97 ± 2 | – | – |
| Clc1cccc(Nc2nnc(Cc3ccccc3Nc3c(Cl)cccc3Cl)o2)c1Cl [7d] | 165 ± 1 | 79 ± 1 | 62 ± 2 | – | – |
| CCSc1nnc(Cc2ccccc2Nc2c(Cl)cccc2Cl)n1-c1ccc(Cl)c(Cl)c1 [6b] | > 250 | 132 ± 1 | 98 ± 1 | – | – |

From paper PMC11576109, “Synthesis and biological evaluation of diclofenac acid derivatives as potential lipoxygenase and α-glucosidase inhibitors” (Royal Society Open Science, 2024)
